{
  "source": "patent US10202388B2",
  "about": "“Fused-ring compounds, pharmaceutical composition and uses thereof” (SHANGHAI DE NOVO PHARMATECH CO., LTD., priority 2015, dated 2019)",
  "target": "HeLa cell based IDO1 (Homo sapiens (Human), UniProt P14902)",
  "sequence (P14902 whole entry)": "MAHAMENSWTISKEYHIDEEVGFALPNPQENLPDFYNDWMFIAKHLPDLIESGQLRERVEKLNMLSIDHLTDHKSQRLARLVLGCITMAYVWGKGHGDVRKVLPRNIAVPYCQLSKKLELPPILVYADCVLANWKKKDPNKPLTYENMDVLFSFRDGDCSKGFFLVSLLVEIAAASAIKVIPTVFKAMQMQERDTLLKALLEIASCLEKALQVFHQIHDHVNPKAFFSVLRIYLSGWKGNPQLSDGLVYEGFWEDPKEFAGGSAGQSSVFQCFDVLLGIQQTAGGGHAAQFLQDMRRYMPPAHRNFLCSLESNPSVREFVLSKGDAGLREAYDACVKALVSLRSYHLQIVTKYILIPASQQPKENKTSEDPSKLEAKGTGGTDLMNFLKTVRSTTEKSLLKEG",
  "assay": "Three-point IDO1 cellular assay (HeLa, 10, 100 and 1000 nM)",
  "settings": "HeLa cells, 100 ng/mL IFN-γ, 18 hours",
  "experimental": "To perform the 3-point HeLa cell based IDO1 assay, HeLa cells were seeded at 25,000 cells per well into 96-well microplate in 100 μL of growth medium. Cells were incubated at 37° C. and 5% CO2 overnight. The next day 100 μL per well of diluted inhibitor in growth medium at 10, 100 and 1000 nM, respectively, was added at a final concentration of 100 ng/ML human IFN-γ. Cells were incubated at 37° C. in a CO2 incubator for 18 hours. […] The plate was incubated at 50° C. for 30 min to hydrolyze N-formylkynurenine produced by IDO1 to kynurenine. The plate was then centrifuged at 2500 rpm for 10 min to remove sediments. 100 μl of supernatant per well was transferred to another 96-well plate and mixed with 100 μL of 2% (w/v) 4-(Dimethylamino) benzaldehyde in acetic acid. The plate was incubated at room temperature for 10 minutes, the yellow color derived from kynurenine was recorded by measuring absorbance at 480 nm using a microplate reader (TECAN Infinite M1000 Pro). Cell based assays were performed in triplicate at each concentration. The absorbance data were analyzed using the computer software, Graphpad Prism. In the absence of the compound and presence of 100 ng/ML IFN-γ, the absorbance (At) in each data set was defined as 100%. The absorbance of medium blank (Ab) in each data set was defined as 0%. The percent absorbance in the presence of each compound was calculated according to the following equation: % Absorbance=(A−Ab)/(At−Ab), where A=the absorbance in the presence of the compound and IFN-γ, Ab=the absorbance of medium blank, and At=the absorbance in the absence of the compounds and presence of IFN-γ. The values of % absorbance versus the compound concentrations were then determined.",
  "data": [
    {"smiles": "O=C(NCC1CC1)NC1C2CC3CC1CC(C(O)CC1c4c(F)cccc4-c4cncn41)(C3)C2", "note": "(stereo not drawn) [Compound 107A]", "values": [
      {"measurement": "inhibition at 0.1 µM", "setting": "at 100 nM", "value": "> 50", "unit": "%"}
    ]},
    {"smiles": "O=C(Nc1cccc2ccccc12)NC1C2CC3CC1CC(C(O)CC1c4c(F)cccc4-c4cncn41)(C3)C2", "note": "(stereo not drawn) [Compound 109A]", "values": [
      {"measurement": "inhibition at 1 µM", "setting": "at 1000 nM", "value": "> 50", "unit": "%"}
    ]},
    {"smiles": "O=C(Nc1ccc2ccccc2c1)NC1C2CC3CC1CC(C(O)CC1c4c(F)cccc4-c4cncn41)(C3)C2", "note": "(stereo not drawn) [Compound 110A]", "values": [
      {"measurement": "inhibition at 0.1 µM", "setting": "at 100 nM", "value": "> 50", "unit": "%"}
    ]},
    {"smiles": "O=C(NCC1CCC1)NC1C2CC3CC1CC(C(O)CC1c4c(F)cccc4-c4cncn41)(C3)C2", "note": "(stereo not drawn) [Compound 111A]", "values": [
      {"measurement": "inhibition at 0.1 µM", "setting": "at 100 nM", "value": "> 50", "unit": "%"}
    ]},
    {"smiles": "O=C(NCC1CCOC1)NC1C2CC3CC1CC(C(O)CC1c4c(F)cccc4-c4cncn41)(C3)C2", "note": "(stereo not drawn) [Compound 112A]", "values": [
      {"measurement": "inhibition at 1 µM", "setting": "at 1000 nM", "value": "> 50", "unit": "%"}
    ]},
    {"smiles": "Cn1cc(NC(=O)NC2C3CC4CC2CC(C(O)CC2c5c(F)cccc5-c5cncn52)(C4)C3)cn1", "note": "(stereo not drawn) [Compound 114A]", "values": [
      {"measurement": "inhibition at 1 µM", "setting": "at 1000 nM", "value": "> 50", "unit": "%"}
    ]},
    {"smiles": "O=C1N(c2ccc(F)cc2)CCN1C1C2CC3CC1CC(C(O)CC1c4c(F)cccc4-c4cncn41)(C3)C2", "note": "(stereo not drawn) [Compound 122]", "values": [
      {"measurement": "inhibition values of %", "setting": "at 100 nM", "value": "greater than 50%"}
    ]},
    {"smiles": "OC(CC1c2c(F)cccc2-c2cncn21)C12CC3CC(C1)C(Nc1nc4ccccc4s1)C(C3)C2", "note": "(stereo not drawn) [Compound 126]", "values": [
      {"measurement": "inhibition at 0.01 µM", "setting": "at 10 nM", "value": "> 50", "unit": "%"}
    ]},
    {"smiles": "OC(CC1c2c(F)cccc2-c2cncn21)C12CC3CC(C1)C(Nc1nc4cccnc4o1)C(C3)C2", "note": "(stereo not drawn) [Compound 127]", "values": [
      {"measurement": "inhibition values of %", "setting": "at 100 nM", "value": "greater than 50%"}
    ]},
    {"smiles": "OC(CC1c2c(F)cccc2-c2cncn21)C12CC3CC(C1)C(OCc1ccccc1)C(C3)C2", "note": "(stereo not drawn) [Compound 133]", "values": [
      {"measurement": "inhibition at 1 µM", "setting": "at 1000 nM", "value": "> 50", "unit": "%"}
    ]},
    {"smiles": "OC(CC1c2c(F)cccc2-c2cncn21)C12CC3CC(C1)C(OCCN1CCOCC1)C(C3)C2", "note": "(stereo not drawn) [Compound 135A]", "values": [
      {"measurement": "inhibition at 0.1 µM", "setting": "at 100 nM", "value": "> 50", "unit": "%"}
    ]},
    {"smiles": "OC(CC1c2c(F)cccc2-c2cncn21)C12CC3CC(C1)C(OCCN1CCOCC1)C(C3)C2", "note": "(stereo not drawn) [Compound 135B]", "values": [
      {"measurement": "inhibition at 1 µM", "setting": "at 1000 nM", "value": "> 50", "unit": "%"}
    ]},
    {"smiles": "OC(COC1C2CC3CC1CC(C(O)CC1c4c(F)cccc4-c4cncn41)(C3)C2)c1ccccc1", "note": "(stereo not drawn) [Compound 136]", "values": [
      {"measurement": "inhibition values of %", "setting": "at 100 nM", "value": "greater than 50%"}
    ]},
    {"smiles": "OC(COC1C2CC3CC1CC(C(O)CC1c4c(F)cccc4-c4cncn41)(C3)C2)C1CCCCC1", "note": "(stereo not drawn) [Compound 137]", "values": [
      {"measurement": "inhibition at 1 µM", "setting": "at 1000 nM", "value": "> 50", "unit": "%"}
    ]},
    {"smiles": "OCCC1(O)C2CC3CC1CC(C(O)CC1c4c(F)cccc4-c4cncn41)(C3)C2", "note": "(stereo not drawn) [Compound 142]", "values": [
      {"measurement": "inhibition values of %", "setting": "at 1000 nM", "value": "greater than 50%"}
    ]},
    {"smiles": "N#Cc1ccc(C2(O)C3CC4CC2CC(C(O)CC2c5c(F)cccc5-c5cncn52)(C4)C3)cc1", "note": "(stereo not drawn) [Compound 145]", "values": [
      {"measurement": "inhibition at 1 µM", "setting": "at 1000 nM", "value": "> 50", "unit": "%"}
    ]},
    {"smiles": "OC(CC1c2c(F)cccc2-c2cncn21)C12CC3CC(C1)C(O)(c1cccnc1)C(C3)C2", "note": "(stereo not drawn) [Compound 146]", "values": [
      {"measurement": "inhibition at 1 µM", "setting": "at 1000 nM", "value": "> 50", "unit": "%"}
    ]},
    {"smiles": "O=S(=O)(Nc1ccccc1)NC1C2CC3CC1CC(C(O)CC1c4ccccc4-c4cncn41)(C3)C2", "note": "(stereo not drawn) [Compound 151]", "values": [
      {"measurement": "inhibition values of %", "setting": "at 100 nM", "value": "greater than 50%"}
    ]},
    {"smiles": "O=S(=O)(Nc1ccc(F)cc1)NC1C2CC3CC1CC(C(O)CC1c4ccccc4-c4cncn41)(C3)C2", "note": "(stereo not drawn) [Compound 152]", "values": [
      {"measurement": "inhibition at 1 µM", "setting": "at 1000 nM", "value": "> 50", "unit": "%"}
    ]},
    {"smiles": "Cc1ccc(NS(=O)(=O)NC2C3CC4CC2CC(C(O)CC2c5ccccc5-c5cncn52)(C4)C3)cc1", "note": "(stereo not drawn) [Compound 153]", "values": [
      {"measurement": "inhibition at 0.1 µM", "setting": "at 100 nM", "value": "> 50", "unit": "%"}
    ]},
    {"smiles": "O=C(Nc1ccc(F)cc1)NC12CC3CC(C1)C(C(O)CC1c4ccccc4-c4cncn41)C(C3)C2", "note": "(stereo not drawn) [Compound 163A]", "values": [
      {"measurement": "inhibition at 0.1 µM", "setting": "at 100 nM", "value": "> 50", "unit": "%"}
    ]},
    {"smiles": "O=C(Nc1ccc(F)cc1)NC12CC3CC(C1)C(C(O)CC1c4ccccc4-c4cncn41)C(C3)C2", "note": "(stereo not drawn) [Compound 163B]", "values": [
      {"measurement": "inhibition at 1 µM", "setting": "at 1000 nM", "value": "> 50", "unit": "%"}
    ]},
    {"smiles": "Cc1ccc(NC(=O)NC23CC4CC(C2)C(C(O)CC2c5ccccc5-c5cncn52)C(C4)C3)cc1", "note": "(stereo not drawn) [Compound 164A]", "values": [
      {"measurement": "inhibition at 0.1 µM", "setting": "at 100 nM", "value": "> 50", "unit": "%"}
    ]},
    {"smiles": "Cc1ccc(NC(=O)NC23CC4CC(C2)C(C(O)CC2c5ccccc5-c5cncn52)C(C4)C3)cc1", "note": "(stereo not drawn) [Compound 164B]", "values": [
      {"measurement": "inhibition at 1 µM", "setting": "at 1000 nM", "value": "> 50", "unit": "%"}
    ]},
    {"smiles": "O=S(=O)(NC12CC3CC(C1)C(C(O)CC1c4ccccc4-c4cncn41)C(C3)C2)c1ccc(C(F)(F)F)cc1", "note": "(stereo not drawn) [Compound 166B]", "values": [
      {"measurement": "inhibition at 0.1 µM", "setting": "at 100 nM", "value": "> 50", "unit": "%"}
    ]},
    {"smiles": "O=S(=O)(NC12CC3CC(C1)C(C(O)CC1c4ccccc4-c4cncn41)C(C3)C2)C1CC1", "note": "(stereo not drawn) [Compound 169A]", "values": [
      {"measurement": "inhibition at 0.1 µM", "setting": "at 100 nM", "value": "> 50", "unit": "%"}
    ]},
    {"smiles": "O=S(=O)(NC12CC3CC(C1)C(C(O)CC1c4ccccc4-c4cncn41)C(C3)C2)C1CC1", "note": "(stereo not drawn) [Compound 169B]", "values": [
      {"measurement": "inhibition at 1 µM", "setting": "at 1000 nM", "value": "> 50", "unit": "%"}
    ]},
    {"smiles": "O=S(=O)(CC1CCCCC1)NC12CC3CC(C1)C(C(O)CC1c4ccccc4-c4cncn41)C(C3)C2", "note": "(stereo not drawn) [Compound 170A-A]", "values": [
      {"measurement": "inhibition at 1 µM", "setting": "at 1000 nM", "value": "> 50", "unit": "%"}
    ]},
    {"smiles": "N#Cc1ccc(NC(=O)NC23CC4CC(C2)C(C(O)CC2c5c(F)cccc5-c5cncn52)C(C4)C3)cc1", "note": "(stereo not drawn) [Compound 191A]", "values": [
      {"measurement": "inhibition at 1 µM", "setting": "at 1000 nM", "value": "> 50", "unit": "%"}
    ]},
    {"smiles": "O=C(CC1CCCCC1)NC12CC3CC(C1)C(C(O)CC1c4c(F)cccc4-c4cncn41)C(C3)C2", "note": "(stereo not drawn) [Compound 192A]", "values": [
      {"measurement": "inhibition at 0.1 µM", "setting": "at 100 nM", "value": "> 50", "unit": "%"}
    ]}
  ]
}
